Data as given in patent US6482949B1, “Colormetric sensor compositions and methods” (priority 1999, dated 2002).

Columns and labels:
[1] = Colorimetric assay: visual color change in solution on addition of fluoride anion; settings: in solution (dichloromethane), naked eye
From the text: (§1) Nonetheless, even with these control systems the addition of tetrabutylammonium salts of various anions (F^−, Cl^− and H2PO4^−), gave rise to results that were quite interesting. […] Such effects can be rationalized in terms of the electron withdrawing nature of the two carbonyl groups, which serve to pull the electrons from the pyrrole units and thus act to increase the acidity of the pyrrolic NH protons. As a result, hydrogen bonding interactions with F^− are favored. In the particular case of inorganic phosphate, we speculate that the two carbonyl groups may also be involved in binding, stabilizing the complex via ancillary hydrogen bonding interactions involving the two HOP-phosphate protons.
Unfortunately, the fluorescence quantum yield of 10 is low.
Using 2,3-dipyrrol-2′yl-5,6dicyanopyrazine (preparation is described in Example 30) as a sensing compound, a vivid yellow-to-red color change in solution observed upon addition of fluoride ion verifies that the quinoxaline backbone is not essential for chemical sensing in this family of compounds. This is consistent with the theory that changes in orbital overlap between the pi systems of conjugated bridging unit and the pyrrole rings account for the sensitivity of the sensing elements to analyte species.
In order to understand more fully the above results, studies were performed to map out the mode of fluoride anion binding. Firstly, it was verified that two pyrrolic nitrogens are required to observe the anion-induced color change. Toward this end, the mono protected 2,3-dipyrrylquinoxaline 12 was prepared by reacting 0.8 equivalents of SEMCl with one equivalent of 2,3-dipyrrylquinoxaline.

[2] = Anion binding constants (Ka) by fluorescence quenching / UV-vis absorbance titration, chloride; settings: dichloromethane; for Anion binding constant (Ka), Cl^−: 1 by fluorescence quenching, 10 by UV-vis absorbance titration at 341 nm, errors ± 10%, average of 2-4 trials
From the text: (§2) The conclusion that 1 binds fluoride anion in dichloromethane solution was further supported by mass spectrometric analyses and titration experiments made using UV-visible absorption and fluorescence emission methods (Tables 1 and 2). The latter studies, which provided Ka values (Tables 1 and 2), were complemented by molar ratio analyses (Job plots) with 1:1 binding stoichiometries observed in all cases.
as §1

[3] = Anion binding constants (Ka) by fluorescence quenching / UV-vis absorbance titration, fluoride; settings: for Anion binding constant (Ka), F^−: 1 by fluorescence quenching (λex 412 nm), 10 by UV-vis absorbance titration at 341 nm, errors ± 10%, average of 2-4 trials; for affinity constant (Ka) for F^− binding, rounded: in dichloromethane
From the text: as §2, §1

[4] = Anion binding constants (Ka) by fluorescence quenching / UV-vis absorbance titration, dihydrogen phosphate; settings: dichloromethane; for Anion binding constant (Ka), H2PO4^−: 1 by fluorescence quenching, 10 by UV-vis absorbance titration at 341 nm, errors ± 10%, average of 2-4 trials
From the text: as §2, §1

Row | SMILES | fluoride anion-induced color change [1] | Anion binding constant (Ka), Cl^− [2] | Anion binding constant (Ka), F^− ([3]; dichloromethane) | affinity constant (Ka) for F^− binding, rounded [3] | Anion binding constant (Ka), H2PO4^− [4] | change in the absorbance or emission spectra on addition of Cl^− ([2]; tetrabutylammonium salt) | change in the absorbance or emission spectra on addition of F^− ([3]; dichloromethane, tetrabutylammonium salt) | change in the absorbance or emission spectra on addition of H2PO4^− ([4]; tetrabutylammonium salt)
1 | N#Cc1nc(-c2ccc[nH]2)c(-c2ccc[nH]2)nc1C#N [2,3-dipyrrol-2′yl-5,6dicyanopyrazine, 2,3-dipyrrol-2′yl-5,6-dicyanopyrazine] | yellow-to-red |  |  |  |  |  |  | 
2 | c1c[nH]c(-c2nc3ccccc3nc2-c2ccc[nH]2)c1 [compound 1, 2,3-dipyrrylquinoxaline] | yellow to orange | 50 M⁻¹ | 18,200 M^−1 | 20000 M⁻¹ | 60 M⁻¹ |  |  | 
3 | COc1cc2nc(-c3ccc[nH]3)c(-c3ccc[nH]3)nc2cc1OC [compound 2, 2,3-dipyrrol-2′-yl-6,7-dimethoxyquinoxaline] | hardly “works” at all | <50 M⁻¹ | 2,300 M^−1 | 2000 M⁻¹ | <50 M⁻¹ |  |  | 
4 | O=[N+]([O-])c1cc2nc(-c3ccc[nH]3)c(-c3ccc[nH]3)nc2cc1[N+](=O)[O-] [compound 3, 2,3-dipyrrol-2′-yl-6,7-dinitroquinoxaline] |  | 45 M⁻¹ | 117,000 M^−1 | ~10^5 M^−1 | 55 M⁻¹ |  |  | 
5 | O=[N+]([O-])c1ccc2nc(-c3ccc[nH]3)c(-c3ccc[nH]3)nc2c1 [compound 7, 6-nitro-2,3-dipyrrylquinoxaline] | yellow to purple | 45 M⁻¹ | 118,000 M^−1 | ~10^5 M^−1 | 80 M⁻¹ |  |  | 
6 | c1ccc2nccnc2c1 [compound 11, quinoxaline, reference compound] |  |  |  |  |  | did not induce any significant change in the absorbance or emission spectra | did not induce any significant change in the absorbance or emission spectra | did not induce any significant change in the absorbance or emission spectra
7 | C[Si](C)(C)CCOCn1cccc1-c1nc2ccccc2nc1-c1ccc[nH]1 [compound 12] | no color change | <50 M⁻¹ | 2,300 M^−1 |  | <50 M⁻¹ |  |  | 
